Consider 14 compounds from US20220267258A1, “ROBENIDINE ANALOGS AS POTENT ANTIMALARIALS AGAINST DRUG-RESISTANT PLASMODIUM FALCIPARUM” (OREGON HEALTH & SCIENCE UNIVERSITY, priority 2021, published 2022).

The test system of one data set is P. falciparum Tm90-C2B. The data set is described as follows: SYBR Green growth inhibition assay, P. falciparum Tm90-C2B. It counts as cell-based, Plasmodium falciparum. As to conditions: Plasmodium falciparum, TM90, 72 h, read-out: IC50 Tm90-C2B. The method, then: (§1) In addition to the drug-sensitive P. falciparum D6 strain, the aminoguanidines were assessed against three drug-resistant strains (Tables 1-3).
(§2) The following parasite strains were used in this study and obtained through BEI Resources, NIAID, NIH. […] The culture medium used was RPMI-1640, supplemented with 25 mM HEPES buffer, 25 mg/L gentamicin sulfate, 45 mg/L hypoxanthine, 10 mM glucose, 2 mM glutamine, and 0.5% Albumax II (complete medium).^43 Cultures were maintained in a standard low oxygen atmosphere (5% O2, 5% CO2, 90% N2) in an environmental chamber and incubated at 37° C. Cultures were sub-passaged every 3-4 days into a fresh culture flask containing complete media and erythrocytes.
(§3) The aminoguanidine series was assessed for in vitro antiplasmodial activity using the fluorescence-based SYBR Green assay described previously by Smilkstein and co-workers.^38 Compounds were evaluated in quadruplicate in flat-bottomed Costar clear 96-well plates (Model #3585). A two-fold serial dilution of each compound was performed across the columns of the test plates starting with 20 μM and ending with a final untreated column to serve as control wells. Asynchronous parasite infected erythrocytes in growth media were added to each well for a total volume of 100 μL, final hematocrit of 2%, and initial parasitemia of 0.2%. The commercial malaria drugs atovaquone and chloroquine were used as control drugs. Test plates were incubated for 72 hr at 37° C. in an environmental chamber with a controlled low oxygen atmosphere (5% O2, 5% CO2, 90% N2). After the incubation period, 100 μL SYBR Green I dye-detergent solution was added to each well, and the plates were incubated at ambient temperature and atmosphere in the dark for at least one hour. Fluorescence was read at 497 nm excitation and 520 nm emission bands using a Spectramax iD3 plate reader. Fluorescence readings were normalized with respect to the untreated control wells representing normal parasite growth and plotted against the logarithm of drug concentration.

In the next data set the test system is P. falciparum strain D6. In words: SYBR Green growth inhibition assay, P. falciparum D6. Format: cell-based, Plasmodium falciparum. As to conditions: Plasmodium falciparum, D6, Erythrocyte, 72 h, read-out: IC50 D6. On the procedure: The in vitro activity of each compound in the aminoguanidine library was assessed against asynchronous cultures of Plasmodium falciparum parasites replicating within human erythrocytes (Tables 1-3). As the chemical development of robenidine was not discussed in its original publication in 1970^4 and limited structural information is available regarding its mechanism of action,^10 profiling was guided primarily by in vitro potency against the P. falciparum D6 strain cultured in human erythrocytes as described above.
as §2
as §3, with “The commercial malaria drugs atovaquone and chloroquine were used as control drugs.” left out

Data set [1] in a line: HepG2 cytotoxicity assay (resazurin). It counts as cell-based, human. As to conditions: human, HepG2 cells; HepG2, 24 hr drug, 24 hr recovery. On the procedure: In this assay, HepG2 cells were incubated with test compounds for 24 hours, followed by a 24-hour recovery period and subsequent staining to evaluate for cytotoxic effects with resazurin. The ratio of the resulting HepG2 IC50 value to the P. falciparum D6 IC50 value can be considered an ‘in vitro therapeutic index,’ or IVTI.
Compounds were prepared as 10 mM stock solutions in DMSO. […] HepG2 cells were added to each well of flat bottom 96-well tissue culture plates at an initial density of 2×10^4 cells per well, and an initial volume of 160 μL complete medium per well. After an overnight incubation at 37° C. to adhere the cells to the culture plates, 40 μL drug solutions in complete medium were applied to each well at a final concentration range of 0 to 200 μM across each plate. Drugs were tested in triplicate or quadruplicate. The cells were incubated for 24 hours at 37° C. and 5% CO2 with the drug solutions, which were then aspirated and replaced with 200 μL per well of complete medium for an additional 24 hour incubation under the same conditions. To each well was added 20 μL of resazurin (Alamar Blue) in PBS buffer to a final concentration of 10 μM, and the plates were incubated for 3 hours. Fluorescence was measured at 560 nm excitation and 590 nm emission bands using a Spectramax iD3 plate reader. Fluorescence readings were normalized with respect to the untreated control wells and plotted against the logarithm of drug concentration.

The next data set relates to P. falciparum A6. In words: SYBR Green growth inhibition assay, P. falciparum A6. It counts as cell-based, Plasmodium falciparum. As to conditions: Plasmodium falciparum, 72 h, read-out: IC50 A6. On the procedure: as §1, §2, §3
The subject of another data set is P. falciparum Dd2. The data set is described as follows: SYBR Green growth inhibition assay, P. falciparum Dd2. It counts as cell-based, Plasmodium falciparum. As to conditions: Plasmodium falciparum, DD2, 72 h, read-out: IC50 Dd2. The method, then:
as §1, §2, §3

As to `N=C(N/N=C/c1ccccc1F)N/N=C/c1ccccc1F` [Compound 2], the IC50 with P. falciparum Tm90-C2B was > 5000 nM; with P. falciparum strain D6, 2870 nM; with P. falciparum A6, 1890 nM; in the data set with P. falciparum Dd2, 4590 nM. Besides, the IC50 at 24 h in data set [1] was > 200000 nM.

As to `N=C(N/N=C/c1cccc(F)c1)N/N=C/c1cccc(F)c1` [Compound 3], the IC50 with P. falciparum Tm90-C2B is > 5000 nM; with P. falciparum strain D6, 767 nM; in the data set with P. falciparum A6, 426 nM; in the data set with P. falciparum Dd2, > 5000 nM. Half-maximal inhibition in data set [1] (IC50 at 24 h) required 49000 nM.

With `N=C(N/N=C/c1ccc(F)cc1)N/N=C/c1ccc(F)cc1` [Compound 4], the IC50 worked out at 4900 nM with P. falciparum Tm90-C2B, 1020 nM with P. falciparum strain D6, 369 nM with P. falciparum A6 and 3790 nM in the data set on P. falciparum Dd2. This compound also showed an IC50 at 24 h in data set [1] of 24000 nM.

Take `N=C(N/N=C/c1ccccc1Cl)N/N=C/c1ccccc1Cl` [Compound 5]: the IC50 in the data set with P. falciparum Tm90-C2B was 1220 nM; in the data set with P. falciparum strain D6 it was 334 nM; in the data set with P. falciparum A6 it was 348 nM; in the data set with P. falciparum Dd2, 961 nM. The IC50 at 24 h in data set [1] was > 200000 nM.

Turning to `N=C(N/N=C/c1cccc(Cl)c1)N/N=C/c1cccc(Cl)c1` [Compound 6], the IC50 came out at 664 nM with P. falciparum Tm90-C2B, 202 nM in the data set with P. falciparum strain D6, 237 nM with P. falciparum A6 and 567 nM in the data set with P. falciparum Dd2. For the same compound, the IC50 at 24 h in data set [1] came out at 35000 nM.

Consider `N=C(N/N=C/c1ccccc1Br)N/N=C/c1ccccc1Br` [Compound 7], for which the concentration for half-maximal inhibition (IC50) in the data set on P. falciparum Tm90-C2B stood at 974 nM; with P. falciparum strain D6 it was 280 nM; in the data set on P. falciparum A6, 876 nM; in the data set with P. falciparum Dd2, 715 nM. This compound also displayed a half-inhibitory concentration (IC50) at 24 h in data set [1] of 94000 nM.

Regarding `N=C(N/N=C/c1cccc(Br)c1)N/N=C/c1cccc(Br)c1` [Compound 8], the half-inhibitory concentration (IC50) came to 1840 nM in the data set on P. falciparum Tm90-C2B, 572 nM in the data set with P. falciparum strain D6, 502 nM in the data set on P. falciparum A6 and 1520 nM with P. falciparum Dd2. This compound came in with a concentration for half-maximal inhibition (IC50) at 24 h in data set [1] of 62000 nM.

`N=C(N/N=C/c1ccc(Br)cc1)N/N=C/c1ccc(Br)cc1` [Compound 9]: the IC50 was determined as 899 nM with P. falciparum Tm90-C2B, 277 nM in the data set with P. falciparum strain D6, 269 nM with P. falciparum A6 and 876 nM in the data set with P. falciparum Dd2. For the same compound, the IC50 at 24 h in data set [1] came out at 38000 nM.

On to `Cc1ccc(/C=N/NC(=N)N/N=C/c2ccc(C)cc2)cc1` [Compound 10], for which the IC50 was 2530 nM in the data set with P. falciparum Tm90-C2B, 905 nM with P. falciparum strain D6, > 5000 nM in the data set with P. falciparum A6 and 2430 nM in the data set with P. falciparum Dd2. Further, the midpoint of inhibition in data set [1], the IC50 at 24 h, lay at 43000 nM.

Consider `COc1ccc(/C=N/NC(=N)N/N=C/c2ccc(OC)cc2)cc1` [Compound 11], for which the IC50 was > 5000 nM in the data set on P. falciparum Tm90-C2B, 263 nM in the data set with P. falciparum strain D6, 289 nM in the data set with P. falciparum A6 and 1600 nM in the data set with P. falciparum Dd2. In addition, in data set [1], the IC50 at 24 h is > 200000 nM.

On to `N=C(N/N=C/c1ccc(C(F)(F)F)cc1)N/N=C/c1ccc(C(F)(F)F)cc1` [Compound 12], for which the IC50 in the data set with P. falciparum Tm90-C2B worked out at 2740 nM; in the data set on P. falciparum strain D6 it was 614 nM; in the data set with P. falciparum A6, 567 nM; in the data set with P. falciparum Dd2, 1540 nM. Also, 40000 nM corresponded to half-maximal inhibition in data set [1] (IC50 at 24 h).

For `N=C(N/N=C/c1ccccc1OC(F)(F)F)N/N=C/c1ccccc1OC(F)(F)F` [Compound 14], the IC50 with P. falciparum Tm90-C2B was > 5000 nM; in the data set on P. falciparum strain D6, 1080 nM; in the data set on P. falciparum A6, 391 nM; in the data set on P. falciparum Dd2, 2330 nM. Half-maximal inhibition in data set [1] (IC50 at 24 h) was put at 156000 nM.

For the compound `N=C(N/N=C/c1cccc(OC(F)(F)F)c1)N/N=C/c1cccc(OC(F)(F)F)c1` [Compound 15], the IC50 in the data set with P. falciparum Tm90-C2B turned out to be 2990 nM; in the data set on P. falciparum strain D6, 670 nM; in the data set with P. falciparum A6, 689 nM; with P. falciparum Dd2 it was 1570 nM. The IC50 at 24 h in data set [1] turned out to be 61000 nM.

For the compound `N=C(N/N=C/c1ccc(OC(F)F)cc1)N/N=C/c1ccc(OC(F)F)cc1` [Compound 18], the IC50 with P. falciparum Tm90-C2B came to 193 nM; with P. falciparum strain D6, 71 nM; with P. falciparum A6 it was 87 nM; in the data set on P. falciparum Dd2, 191 nM. Besides, in data set [1], the IC50 at 24 h stood at 19000 nM.
